Laboratory results reported in patent US20080139520A1, “Altering cholesterol and fat uptake by novel allosteric inhibitors of pancreatic phospholipase A2” (priority 2006, published 2008).

Experiments:
WT (wild type) pig PLA2 = biological target: T1, WT (wild type) pig PLA2 (Sus scrofa, UniProt P00592); experiment: PLA2 catalyzed hydrolysis of sonicated DMPC vesicles with added bile salt (pH-stat); assay type: biochemical; settings: for effect of bile salt on the rate of hydrolysis (monophasic/biphasic): DMPC vesicles, pancreatic PLA2
T1 construct: made in house
T1 sequence (P00592 23-146): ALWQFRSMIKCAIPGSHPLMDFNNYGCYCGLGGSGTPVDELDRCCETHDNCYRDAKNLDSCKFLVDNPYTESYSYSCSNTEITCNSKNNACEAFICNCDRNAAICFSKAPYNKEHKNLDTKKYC
Description: Aqueous dispersion of phospholipid was sonicated in a bath type sonicator. Virtually transparent suspension was annealed for at least 4 hours at room temperature before use. Reaction progress for the PLA2 catalyzed hydrolysis of sonicated DMPC (1 mM) vesicles was measured by pH-stat titration (Radiometer) with 1 mM 2-aminopropanediol in 4 ml reaction buffer containing 5 mM CaCl2 for DMPC (or 0.5 mM for DMPM), 1 mM NaCl, […] atmosphere. Reaction was initiated by adding 0.1 μg enzyme in 1-10 μl solution. The pH stat method was also used for monitoring the rate of hydrolysis of DMPM (0.4 mM) vesicles in the presence of polymyxin [27-29], or of the mixed-micelles of POPC with bile salts in 1:2 ratio [13, 30].
Delay before the onset of the stationary phase of the PLA2 catalyzed reaction progress for the hydrolysis of zwitterionic phospholipids has been extensively characterized. […] The apparent rates in FIG. 3 were obtained from the initial slopes of such reaction progress during which <5% of the total substrate is hydrolyzed.
The CMC of the bile salts used in this study range between 0.8 to 5 mM.

human pancreatic IB PLA2 [1] = biological target: T2, human pancreatic IB PLA2 (Homo sapiens, UniProt P04054); experiment: Rate-lowering of hydrolysis of DMPC + 0.05 mole fraction cholate vesicles by human pancreatic PLA2; assay type: biochemical; settings: 0.03 mole fraction; DMPC + 0.05 mole fraction cholate
T2 construct: gift of Dr. Suren Tatulian (Orlando, Fla.)
T2 sequence (P04054 23-148): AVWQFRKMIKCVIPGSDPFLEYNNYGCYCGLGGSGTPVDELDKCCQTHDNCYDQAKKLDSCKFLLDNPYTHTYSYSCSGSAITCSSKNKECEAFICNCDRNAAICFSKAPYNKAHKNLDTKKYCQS
Source text: (§1) Independent support for selective binding of the rate lowering compounds to a regulatory site on PLA2 comes from the rate-lowering effect of such compounds on the hydrolysis of DMPC vesicles containing 0.05 mole fraction cholate.
(§2) Scores of other compounds in guggul were not active.

pig pancreatic IB PLA2 = biological target: T3, pig pancreatic IB PLA2 (Sus scrofa, UniProt P00592); experiment: Rate-lowering of hydrolysis of DMPC + 0.05 mole fraction cholate vesicles by pig pancreatic PLA2; assay type: biochemical; settings: for Relative Rate-lowering (%) Activity, pPLA2: 0.03 mole fraction, DMPC + 0.05 mole fraction cholate
T3 construct: made in house
T3 sequence (P00592 23-146): as the sequence (P00592 23-146) above
Source text: as §1, §2

[2] = reported in literature [54-56]; cited from earlier work
PLA2 [3] = biological target: T4, PLA2 (Sus scrofa, UniProt P00592); experiment: Quenching of RET signal from TMA-DPH bound to PLA2 by bile salts; assay type: binding, pig; settings: 1 μM PLA2 and TMA-DPH, pH 8.0
T4 construct: made in house
T4 sequence (P00592 23-146): as above
Description: Fluorescence emission spectrum or time course of the intensity change from tryptophan or the resonance energy transfer probe TMA-DPH were measured in the ratio mode on SLM-Aminco AB2 in a 1 cm cuvette [31, 32] in 1.6 ml stirred buffer containing 1 or 2 μM PLA2 in 10 mM Tris, 5 mM CaCl2 and 20 mM NaCl at pH 8.0 and 24° C. The slit-widths were 4 nm with excitation at 280.

human pancreatic IB PLA2 [4] = biological target: T2, human pancreatic IB PLA2; experiment: Hydrolysis of DMPC vesicles by human IB PLA2 with added bile salt; assay type: biochemical; settings: 1 mM DMPC
Description: (§3) Aqueous dispersion of phospholipid was sonicated in a bath type sonicator. Virtually transparent suspension was annealed for at least 4 hours at room temperature before use. Reaction progress for the PLA2 catalyzed hydrolysis of sonicated DMPC (1 mM) vesicles was measured by pH-stat titration (Radiometer) with 1 mM 2-aminopropanediol in 4 ml reaction buffer containing 5 mM CaCl2 for DMPC (or 0.5 mM for DMPM), 1 mM NaCl, and 0.1 mM EDTA at pH 8.0 and 24° C. in the nitrogen purged closed atmosphere. Reaction was initiated by adding 0.1 μg enzyme in 1-10 μl solution. The pH stat method was also used for monitoring the rate of hydrolysis of DMPM (0.4 mM) vesicles in the presence of polymyxin [27-29], or of the mixed-micelles of POPC with bile salts in 1:2 ratio [13, 30].

PLA2 [5] = biological target: T4, PLA2; experiment: Isothermal calorimetric titration of PLA2 with bile salt; assay type: binding, pig; settings: ITC, 8.5 μM PLA2
Description: ITC titration of PLA2 with <1 mM (below the CMC) bile salt stock solution was carried out on the Microcal calorimeter (model VP-itc) with cell volume of 1.42 ml with stirring at 300 rpm. Successive injections were made every 5 min. Standard software was used for the peak integration. The heat change with the internal calibration associated with the dilution of the titrant in the […] was subtracted from the heat change obtained by the injection of the bile salt in the presence of 8.5 μM PLA2. The net heat change per injection in the presence of PLA2 was integrated to obtain the total heat change as a function of the total added amphiphile concentration.

PLA2 [6] = biological target: T4, PLA2; experiment: PLA2 catalyzed hydrolysis of mixed micelles of POPC with bile salts; assay type: biochemical, pig; settings: 1 mM POPC, 0.7 mole fraction bile salt
Description: as §3

Compound: C[C@H](CCC(=O)NCC(=O)O)[C@H]1CC[C@H]2[C@@H]3CC[C@@H]4C[C@H](O)CC[C@]4(C)[C@H]3C[C@H](O)[C@]12C [GDOC, glycodeoxycholate]
- effect of bile salt on the rate of hydrolysis (monophasic/biphasic) (WT (wild type) pig PLA2): biphasic effect

Compound: C/C=C1\C(=O)C[C@H]2[C@@H]3CCC4=CC(=O)CC[C@]4(C)[C@H]3CC[C@]12C [Guggulosterone]
- Relative Rate-lowering (%) Activity, hPLA2 (human pancreatic IB PLA2 [1]): 53%
- Relative Rate-lowering (%) Activity, pPLA2 (pig pancreatic IB PLA2): 85%

Compound: O=C1[C@H](CC[C@H](O)c2ccc(F)cc2)[C@@H](c2ccc(O)cc2)N1c1ccc(F)cc1 [Ezetimibe]
- reported side effects [2]: hepatotoxicity, cholestatic hepatitis, acute autoimmune hepatitis, myopathy, and modulation of monocytic raft assembly
- Relative Rate-lowering (%) Activity, hPLA2 (human pancreatic IB PLA2 [1]): 5%
- Relative Rate-lowering (%) Activity, pPLA2 (pig pancreatic IB PLA2): 30%
- relative effectiveness in lowering the rate with pig pancreatic PLA2 (pig pancreatic IB PLA2; DMPC vesicles containing 0.05 mole fraction cholate, FIG. 6): more effective

Compound: C[C@H](CCC(=O)O)[C@H]1CC[C@H]2[C@@H]3[C@H](O)C[C@@H]4C[C@H](O)CC[C@]4(C)[C@H]3C[C@H](O)[C@]12C [cholate, reference compound]
- efficacy to quench RET signal from TMA-DPH bound to PLA2 (PLA2 [3]): least effective
- effect on rate of hydrolysis of DMPC vesicles by human pancreatic IB PLA2 (human pancreatic IB PLA2 [4]): increases
- heat change on titration of PLA2 (PLA2 [5]): No heat change
- initial rate of hydrolysis of POPC in mixed micelles (PLA2 [6]): 150 s⁻¹
- peak rate of hydrolysis of DMPC vesicles (WT (wild type) pig PLA2; 1 mM DMPC, 24° C., cholate above 0.04 mM): 140 s⁻¹
- effect of bile salt on the rate of hydrolysis (monophasic/biphasic) (WT (wild type) pig PLA2): only a rate increase

Compound: C[C@H](CCC(=O)NCC(=O)O)[C@H]1CC[C@H]2[C@@H]3[C@H](O)C[C@@H]4C[C@H](O)CC[C@]4(C)[C@H]3C[C@H](O)[C@]12C [glycocholate]
- effect of bile salt on the rate of hydrolysis (monophasic/biphasic) (WT (wild type) pig PLA2): biphasic effect
